Measurements from ChEMBL document CHEMBL4265943, “Design and synthesis of potent dual inhibitors of JAK2 and HDAC based on fusing the pharmacophores of XL019 and vorinostat” (Eur J Med Chem, 2018).

Columns and labels:
MDA-MB-231 = assay: Antiproliferative activity against human MDA-MB-231 cells after 72 hrs by MTT assay; type: functional, cell-based; details: MDA-MB-231, 72 h
PC-3 = assay: Antiproliferative activity against human PC3 cells after 72 hrs by MTT assay; type: functional, cell-based; details: PC-3, 72 h
HCT-116 = assay: Antiproliferative activity against human HCT116 cells after 72 hrs by MTT assay; type: functional, cell-based; details: HCT-116, 72 h
MCF7 = assay: Antiproliferative activity against human MCF7 cells after 72 hrs by MTT assay; type: functional, cell-based; details: MCF7, 72 h
[1] = Selectivity index, ratio of CC50 for mouse TAMH cells to IC50 for human MDA-MB-231 cells; type: toxicity; details: TAMH cells (CC50) and MDA-MB-231 cells (IC50)
[2] = molecular target: Tyrosine-protein kinase JAK2 (Homo sapiens, UniProt O60674); assay: Inhibition of human JAK2 using poly(Glu:Tyr)(4:1) as substrate preincubated for 20 mins followed by [gamma33P]ATP addition measured after 120 mins by ion exchange filter paper method
Tyrosine-protein kinase JAK2, sequence (O60674 whole entry): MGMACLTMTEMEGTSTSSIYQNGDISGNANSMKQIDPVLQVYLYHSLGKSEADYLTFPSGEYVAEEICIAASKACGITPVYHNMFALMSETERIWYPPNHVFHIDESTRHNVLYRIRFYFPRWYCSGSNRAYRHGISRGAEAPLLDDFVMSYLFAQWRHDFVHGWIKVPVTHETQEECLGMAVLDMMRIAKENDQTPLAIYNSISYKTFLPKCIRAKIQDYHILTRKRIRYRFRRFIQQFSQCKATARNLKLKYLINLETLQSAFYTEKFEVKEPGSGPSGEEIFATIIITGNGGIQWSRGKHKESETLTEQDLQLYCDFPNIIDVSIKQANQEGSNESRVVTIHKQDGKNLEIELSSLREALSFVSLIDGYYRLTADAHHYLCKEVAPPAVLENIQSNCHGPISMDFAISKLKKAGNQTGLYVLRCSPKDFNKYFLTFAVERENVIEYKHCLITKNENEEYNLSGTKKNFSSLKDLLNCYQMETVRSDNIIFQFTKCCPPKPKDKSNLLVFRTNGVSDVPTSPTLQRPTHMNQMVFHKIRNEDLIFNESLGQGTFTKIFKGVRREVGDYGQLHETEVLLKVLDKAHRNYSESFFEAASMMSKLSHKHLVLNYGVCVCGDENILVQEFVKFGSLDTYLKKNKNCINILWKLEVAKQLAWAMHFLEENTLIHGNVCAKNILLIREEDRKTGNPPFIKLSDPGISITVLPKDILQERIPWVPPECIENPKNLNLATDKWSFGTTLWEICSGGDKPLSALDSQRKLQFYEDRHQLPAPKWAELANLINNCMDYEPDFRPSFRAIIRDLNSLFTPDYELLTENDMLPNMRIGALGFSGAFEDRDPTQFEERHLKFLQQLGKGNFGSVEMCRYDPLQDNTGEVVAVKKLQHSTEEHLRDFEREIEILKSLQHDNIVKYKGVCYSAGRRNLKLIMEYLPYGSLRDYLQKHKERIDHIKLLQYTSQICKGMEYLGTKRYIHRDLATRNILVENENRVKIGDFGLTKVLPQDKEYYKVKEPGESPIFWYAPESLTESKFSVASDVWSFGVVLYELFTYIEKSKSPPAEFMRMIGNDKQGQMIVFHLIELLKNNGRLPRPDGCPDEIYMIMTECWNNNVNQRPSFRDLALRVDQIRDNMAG

[3] = molecular target: T1, Protein deacetylase HDAC6 (Homo sapiens, UniProt Q9UBN7); assay: Inhibition of HDAC6 (unknown origin) using Arg-His-Lys-Lys(Ac) as substrate preincubated with enzyme followed by substrate addition for 2 hrs and measured for 1.5 hrs at 15 mins time interval by fluorescence assay
T1 sequence (Q9UBN7 whole entry): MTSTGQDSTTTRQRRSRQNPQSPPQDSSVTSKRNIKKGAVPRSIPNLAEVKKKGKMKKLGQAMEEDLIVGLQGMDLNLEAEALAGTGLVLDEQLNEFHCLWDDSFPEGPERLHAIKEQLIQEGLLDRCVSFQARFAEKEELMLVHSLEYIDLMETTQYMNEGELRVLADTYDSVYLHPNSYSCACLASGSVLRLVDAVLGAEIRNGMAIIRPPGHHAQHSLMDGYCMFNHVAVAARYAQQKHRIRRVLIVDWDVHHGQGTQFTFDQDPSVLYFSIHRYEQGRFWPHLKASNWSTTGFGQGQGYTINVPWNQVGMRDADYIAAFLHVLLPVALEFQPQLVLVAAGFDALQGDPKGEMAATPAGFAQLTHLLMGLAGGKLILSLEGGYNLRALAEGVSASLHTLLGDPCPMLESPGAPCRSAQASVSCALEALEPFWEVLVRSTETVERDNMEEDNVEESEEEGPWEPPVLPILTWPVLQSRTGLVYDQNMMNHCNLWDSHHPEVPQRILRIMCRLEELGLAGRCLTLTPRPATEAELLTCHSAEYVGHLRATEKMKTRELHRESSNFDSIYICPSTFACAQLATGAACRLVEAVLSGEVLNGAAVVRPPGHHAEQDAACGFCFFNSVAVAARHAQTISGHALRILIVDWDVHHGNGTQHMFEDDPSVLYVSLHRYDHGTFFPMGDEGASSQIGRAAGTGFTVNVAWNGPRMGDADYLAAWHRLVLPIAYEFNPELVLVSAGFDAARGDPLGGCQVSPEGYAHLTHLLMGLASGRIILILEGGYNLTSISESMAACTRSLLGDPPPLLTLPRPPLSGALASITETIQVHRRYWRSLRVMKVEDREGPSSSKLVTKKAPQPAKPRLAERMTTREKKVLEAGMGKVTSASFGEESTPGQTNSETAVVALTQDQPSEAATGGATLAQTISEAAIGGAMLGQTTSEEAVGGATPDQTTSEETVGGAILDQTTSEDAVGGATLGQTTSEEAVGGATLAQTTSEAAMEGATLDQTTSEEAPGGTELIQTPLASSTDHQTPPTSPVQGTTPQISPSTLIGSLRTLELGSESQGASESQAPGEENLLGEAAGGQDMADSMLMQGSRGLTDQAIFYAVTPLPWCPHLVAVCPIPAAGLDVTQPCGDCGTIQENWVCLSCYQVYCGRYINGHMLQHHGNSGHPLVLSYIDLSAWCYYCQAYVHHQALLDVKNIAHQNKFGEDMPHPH

Histone deacetylase 1 = Histone deacetylase 1 (Homo sapiens, UniProt Q13547); assay: Inhibition of HDAC1 (unknown origin) using Arg-His-Lys-Lys(Ac) as substrate preincubated with enzyme followed by substrate addition for 2 hrs and measured for 1.5 hrs at 15 mins time interval by fluorescence assay
Histone deacetylase 1, sequence (Q13547 whole entry): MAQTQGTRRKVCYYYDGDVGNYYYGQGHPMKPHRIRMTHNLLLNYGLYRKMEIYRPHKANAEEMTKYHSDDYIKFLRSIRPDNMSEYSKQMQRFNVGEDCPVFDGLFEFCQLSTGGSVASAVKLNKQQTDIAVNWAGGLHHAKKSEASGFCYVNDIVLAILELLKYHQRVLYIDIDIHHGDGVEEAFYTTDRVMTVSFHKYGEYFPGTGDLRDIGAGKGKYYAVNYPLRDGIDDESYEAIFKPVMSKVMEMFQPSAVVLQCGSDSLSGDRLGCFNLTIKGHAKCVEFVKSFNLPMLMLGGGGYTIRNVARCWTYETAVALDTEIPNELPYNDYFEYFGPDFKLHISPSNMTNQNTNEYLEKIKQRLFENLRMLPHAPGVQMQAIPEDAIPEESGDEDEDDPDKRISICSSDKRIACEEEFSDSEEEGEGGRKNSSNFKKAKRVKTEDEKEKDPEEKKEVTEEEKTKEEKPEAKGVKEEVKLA

[4] = Selectivity index, ratio of CC50 for human AC10 cells to IC50 for human PC3 cells; type: toxicity; details: AC10 cells (CC50) and PC3 cells (IC50)
[5] = Selectivity index, ratio of CC50 for human AC10 cells to IC50 for human MDA-MB-231 cells; type: toxicity; details: AC10 cells (CC50) and MDA-MB-231 cells (IC50)
[6] = Antiproliferative activity against mouse TAMH cells after 72 hrs by MTT assay; type: cell-based
[7] = Selectivity index, ratio of CC50 for human AC10 cells to IC50 for human HCT116 cells; type: toxicity; details: AC10 cells (CC50) and HCT116 cells (IC50)
[8] = Selectivity index, ratio of CC50 for mouse TAMH cells to IC50 for human MCF7 cells; type: toxicity; details: TAMH cells (CC50) and MCF7 cells (IC50)
[9] = Selectivity index, ratio of CC50 for human AC10 cells to IC50 for human MCF7 cells; type: toxicity; details: AC10 cells (CC50) and MCF7 cells (IC50)
[10] = Selectivity index, ratio of CC50 for mouse TAMH cells to IC50 for human HCT116 cells; type: toxicity; details: TAMH cells (CC50) and HCT116 cells (IC50)
[11] = Antiproliferative activity against human AC10 cells after 72 hrs by MTT assay; type: cell-based
[12] = Selectivity index, ratio of CC50 for mouse TAMH cells to IC50 for human PC3 cells; type: toxicity; details: TAMH cells (CC50) and PC3 cells (IC50)
HEL 92.1.7 = assay: cells; type: functional, cell-based; details: Homo sapiens, HEL 92.1.7, 72 h
Description: Antiproliferative activity against human HEL 92.1.7 cells after 72 hrs by MTT assay

Jurkat = assay: Antiproliferative activity against human Jurkat cells after 72 hrs by MTT assay; type: functional, cell-based
KMS-12-BM = assay: Antiproliferative activity against human KMS-12-BM cells after 72 hrs by MTT assay; type: functional, cell-based
[13] = Antiproliferative activity against human XG6 cells after 72 hrs by MTT assay; type: functional, cell-based; details: XG6, 72 h

| SMILES | IC50 (MDA-MB-231) [µM] | IC50 (PC-3) [µM] | IC50 (HCT-116) [µM] | IC50 (MCF7) [µM] | selectivity ratio [1] | IC50 [2] [µM] | IC50 [3] [µM] | IC50 (Histone deacetylase 1) [µM] | selectivity ratio [5] | CC50 at 72 h [6] [µM] | selectivity ratio [7] | selectivity ratio [10] | CC50 at 72 h [11] [µM] | also measured |
| --- | --- | --- | --- | --- | --- | --- | --- | --- | --- | --- | --- | --- | --- | --- |
| O=C(Nc1ccc(-c2ccnc(Nc3ccc(N4CCOCC4)cc3)n2)cc1)[C@@H]1CCCN1 | 9.67 | 14.9 | 7.34 | 27.2 |  |  |  |  |  |  |  |  |  |  |
| Cc1cnc(Nc2ccc(N3CCN(C)CC3)cc2)nc1-c1ccc(NC(=O)CCCCCCC(=O)NO)cc1 | 0.97 | 1.04 | 1.05 | 1.3 | 7.71 | 0.0043 | 0.0021 | 0.139 | 3.84 | 7.48 | 3.54 | 7.12 | 3.72 | selectivity ratio [4]: 3.58; selectivity ratio [8]: 5.75; selectivity ratio [9]: 2.86; selectivity ratio [12]: 7.19 |
| CN1CCN(CC(=O)Nc2ccc(-c3ccnc(Nc4cccc(OCCCCCCC(=O)NO)c4)n3)cc2)CC1 | 0.65 | 1.15 | 0.77 | 1.32 | 7.86 | 0.109 | 0.0068 | 0.348 | 9.65 | 5.11 | 8.14 | 6.64 | 6.27 | selectivity ratio [4]: 5.45; selectivity ratio [8]: 3.87; selectivity ratio [9]: 4.75; selectivity ratio [12]: 4.44 |
| O=C(CCCCCCC(=O)Nc1ccccc1)NO [VORINOSTAT] |  |  |  | 0.81 |  |  |  |  |  |  |  |  |  |  |
| CC(=O)Nc1ccc(-c2ccnc(Nc3ccc(NC(=O)CCCCC(=O)NO)cc3)n2)cc1 | 32.1 | 47.3 | 65.6 | 43.4 |  | 0.0583 | 0.117 | 3.35 |  |  |  |  |  |  |
| CC(=O)Nc1ccc(-c2ccnc(Nc3cccc(NC(=O)CCCCCCC(=O)NO)c3)n2)cc1 | 2.48 | 0.34 | 1.15 | 0.32 | 8.14 | 0.0092 | 0.00081 | 0.0324 | 12.7 | 12.5 | 9.91 | 6.36 | 19.5 | IC50 (HEL 92.1.7): > 10 µM; IC50 (Jurkat): > 10 µM |
| O=C(CCCCCCC(=O)Nc1ccc(-c2ccnc(Nc3ccc(N4CCCCC4)cc3)n2)cc1)NO | 2.83 | 5.58 | 1.07 | 1.89 |  |  | 0.023 | 0.934 |  | 12.9 |  |  | 11.7 |  |
| CC(=O)Nc1ccc(-c2ccnc(Nc3ccc(N4CCN(C)CC4)cc3)n2)cc1 |  |  |  |  |  | 0.0079 |  |  |  |  |  |  |  |  |
| CC(=O)Nc1ccc(-c2ccnc(Nc3cccc(N4CCCCC4)c3)n2)cc1 |  |  |  |  |  | 0.0138 |  |  |  |  |  |  |  |  |
| CC(CCCCCC(=O)NO)n1cc(-c2ncnc3[nH]ccc23)cn1 (centres undefined) | 0.79 | 2.41 | 2.32 | 0.84 |  |  |  |  |  |  |  |  |  | IC50 (KMS-12-BM): 2.02 µM; IC50 (HEL 92.1.7): 1.32 µM; IC50 (Jurkat): 0.47 µM; IC50 [13]: 2.01 µM |
